Assays:
CD20+ Raji target cells = assay: SNAP-CAR T cell activation (CD69) with MTGase-produced site-specific adaptor; type: cell-based, human; conditions: CD69 after 24 h
Method: (§1) 55. FIGS. 26A and 26B show MTGase enzymatic antibody-adaptor conjugation. […] CD69 T cell activation marker expression on the CAR T cells was evaluated after 24 h. n=3 biol. reps.
(§2) 187. In a complementary, enzymatic conjugation approach we synthesized the terminal amine 11 from the commercially available PEG 10 (FIG. 12A), and target a conserved glutamine located in each of the heavy chains of the de-glycosylated IgG1 antibody through selective modification by the enzyme MTGase (FIG. 12B). This generates uniform conjugates in quantitative yields adding exactly two modifications using conserved glutamines as the only γ-carbonyl amide donors on dei-glycosylated IgGls, This method that has been used for dozens of clinical use ADCs. […] In addition, the site-specific adaptor was efficient at inducing T cell activity (FIG. 26B).

SNAPtag = assay: Incubation of MTGase-made adaptor with SNAP protein, SDS-PAGE; type: biochemical; conditions: SNAPtag 2 eq. per BG
Method: as §1, §2

SNAP-synNotch receptor = SNAP-synNotch receptor activation in Jurkat cells co-incubated with target cells (TagBFP output); type: cell-based
Source text: 51. […] The system triggers Gal4-VP64 transcription factor-driven TagRFP expression. […] TagRFP levels are reported as mean fluorescence intensity (MFI), n=3 biologically independent experiments±s.d.
176. We created a universal adaptor synNotch to direct receptor activation and the resulting transcriptional gene output in response to interaction with BG-conjugated adaptor antibodies on the surface of target cells (FIG. 22). We cloned a SNAP-synNotch receptor consisting of the SNAPtag domain fused to the Notch core protein, and the Gal4-transcription factor (to turn on a gal4 promoter-driven TagBFP gene) and transduced Jurkat cells. […] Receptor activation was sensitive and tunable, with a significant response at an antibody concentration as low as 0.04 μglmL and increasing to a peak at 0.25 μg/mL. Response gene activation then decreased with increasing antibody indicative of a “hook effect”—as expected in ternary complex formation. BG-conjugated antibodies targeting other antigens were also capable of activating the SNAP-synNotch receptor in an antigen-specific manner indicating universality of the cell re-programming approach.

| Substance | inducing T cell activity (CD20+ Raji target cells) | BG labeling by incubation with SNAP protein (SNAPtag) | function of universal adaptor synNotch system (SNAP-synNotch receptor) |
| --- | --- | --- | --- |
| RTX-BG: PEG2-BG labeled Rituximab adaptor made via MTGase conjugation | efficient | near complete | – |
| mSA2 | – | – | ineffective |

— patent US20230414754A1, “CONDITIONAL CONTROL OF UNIVERSAL CAR T CELLS THROUGH STIMULUS-REACTIVE ADAPTORS” (UNIVERSITY OF PITTSBURGH-OF THE COMMONWEALTH SYSTEM OF …, priority 2020, published 2023)
